Data taken from BindingDB's records for doi:10.7270/Q2251GJ9 (The Scripps Research Institute Molecular Screening Center, 2007).
Counter-ions that a name gives are not always drawn.

Target: Sphingosine 1-phosphate receptor 1 (Homo sapiens, UniProt P21453)
Assay: direct activation of human S1P1 – cell-based, agonist mode, 60K MLSMR set, dose response (AID 468)
[1] = inactive by the depositor's call

Chain of Sphingosine 1-phosphate receptor 1 (P21453 whole entry): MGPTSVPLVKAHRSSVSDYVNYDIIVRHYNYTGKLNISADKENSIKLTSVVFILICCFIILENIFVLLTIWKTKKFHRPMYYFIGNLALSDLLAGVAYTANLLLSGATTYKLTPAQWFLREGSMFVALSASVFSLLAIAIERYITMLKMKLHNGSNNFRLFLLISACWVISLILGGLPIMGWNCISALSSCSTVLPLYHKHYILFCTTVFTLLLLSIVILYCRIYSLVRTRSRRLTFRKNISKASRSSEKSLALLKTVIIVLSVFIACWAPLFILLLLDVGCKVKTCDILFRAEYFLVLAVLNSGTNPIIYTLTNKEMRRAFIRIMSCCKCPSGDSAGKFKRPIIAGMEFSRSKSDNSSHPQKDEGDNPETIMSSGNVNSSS

EC50 [1] [µM]	EC50 [µM]	Compound
30.4		CC(=O)c1sc(NC(=O)C2(F)C(F)(F)C(F)(F)C(F)(F)C(F)(F)C2(F)F)nc1C [MLS000040071]
	> 30	CCC(=O)Nc1ccc2c(c1)C(=O)N(C1CCCCC1)C2=O [MLS000099936]
95		COc1ccc2c(c1)CCc1c(C(=O)NC3CCCCC3)noc1-2 [MLS000087437]
16.8		Cc1ccccc1OCC(=O)Nc1ccc(N2CCN(C(=O)C(C)C)CC2)c(Cl)c1 [MLS000034491]
17.3		O=C(C1CCN(S(=O)(=O)c2cccc3cccnc23)CC1)N1CCN(c2ccc(Cl)cc2)CC1 [MLS000116819]
	4.18	CCCCOc1ncnc2c1[nH]c1ccccc12 [MLS000041483]
	3.05	Cc1ccc2oc(-c3ccc(NC(=O)c4cccnc4)cc3)nc2c1 [MLS000068975]
	6.79	Cc1cc(C(=O)Nc2sc(C)c(-c3ccc(F)cc3)c2C(N)=O)no1 [MLS000043467]
	1.56	CCOc1ccccc1OCCCCCc1c(C)n[nH]c1C [MLS000043342]
	0.922	Cc1oc(-c2ccccc2)nc1Cn1cccc1C1=NC(c2ccccc2)CO1 (centres undefined) [SMR000026251]
	> 3	O=C(Nc1nc(-c2ccc(Cl)s2)cs1)c1ccncc1 [MLS000098514]
	33.9	CCOC(=O)Nc1ccc2c(c1)N(C(=O)CCN(C)C)c1ccccc1S2 [MLS000038082]
	0.552	Cc1cc(C=Nn2cnnc2)c(C)n1-c1ccc(OCc2ccc(F)cc2)cc1 [MLS000112167]
10.7		C=CCOC(=O)c1[nH]c2c(c1C)C(=O)CC(c1cc(OC)c(OC)c(OC)c1)C2 (centres undefined) [SMR000093465]
26.1		COc1cccc(-c2nc(-c3ccc(NC(=O)c4cccnc4)cc3)no2)c1 [MLS000047254]
	1.49	CCN(C(=O)c1ccc(C(C)(C)C)cc1)c1nnc(Cn2nnc3ccccc32)s1 [MLS000072751]
	5.94	Cn1nc(CC(=O)Nc2ccc3c(c2)OCCO3)c2ccccc2c1=O [MLS000047020]

More lines, now with the values behind:

Compound	EC50 [1] [µM]	EC50 [µM]
O=C(C1CC1)N1CCc2cc(S(=O)(=O)NCC3COc4ccccc4O3)ccc21 (centres undefined) [1-(cyclopropanecarbonyl)-N-(2,3-dihydro-1,4-benzodioxin-3-ylmethyl)-2,3-dihydroindole-5-sulfonamide]	14	
CCc1ccc(-c2nc(-c3ccncc3)no2)cc1 [5-(4-ethylphenyl)-3-(4-pyridyl)-1,2,4-oxadiazole]		5.7
CCOc1ccc(C(=O)Nc2ccc(Cl)cn2)cc1Cl [3-chloranyl-N-(5-chloranylpyridin-2-yl)-4-ethoxy-benzamide]		5.51
CCC(C)c1ccc2oc(-c3ccc(NC(=O)Cn4cnc5c(=O)n(C)c(=O)n(C)c54)cc3)nc2c1 (centres undefined) [2-(2,6-diketo-1,3-dimethyl-purin-9-yl)-N-[4-(5-sec-butyl-1,3-benzoxazol-2-yl)phenyl]acetamide]		2.02
O=C(c1ccc(F)cc1)C(CN1CCOCC1)c1ccccc1 (centres undefined) [1-(4-fluorophenyl)-3-(4-morpholinyl)-2-phenyl-1-propanone;hydrochloride]		17.9
CCc1cc2c(N3CCN(c4ccccc4)CC3)ncnc2s1 [6-ethyl-4-(4-phenyl-1-piperazinyl)thieno[2,3-d]pyrimidine]		6.61
Nc1nnnn1N=C/C(Br)=C/c1ccccc1 [1-[[(Z)-2-bromanyl-3-phenyl-prop-2-enylidene]amino]-1,2,3,4-tetrazol-5-amine]		> 10
Cc1cccc(-c2nc(CSCC(=O)N3CCN(Cc4ccc5c(c4)OCO5)CC3)c(C)o2)c1 [1-(1,3-benzodioxol-5-ylmethyl)-4-[({[5-methyl-2-(3-methylphenyl)-1,3-oxazol-4-yl]methyl}thio)acetyl]piperazine]		5.16
O=C1CC(N2CCN(C/C=C/c3ccccc3)CC2)C(=O)N1CCc1ccccc1 (centres undefined) [1-(2-phenylethyl)-3-[4-[(E)-3-phenylprop-2-enyl]-1-piperazinyl]pyrrolidine-2,5-dione]	20	
CCOc1ccc(-c2nnc(-c3ccco3)o2)cc1OCC [2-(3,4-Diethoxy-phenyl)-5-furan-2-yl-[1,3,4]oxadiazole]		1.18
COc1cccc(NC(=O)Nc2nnc(N3CCCCC3C)s2)c1 (centres undefined) [1-(3-methoxyphenyl)-3-[5-(2-methyl-1-piperidinyl)-1,3,4-thiadiazol-2-yl]urea]		8.72
CC(C)Oc1cc(O)c2c(=O)c(-c3ccc(O)cc3)coc2c1 [3-(4-hydroxyphenyl)-5-oxidanyl-7-propan-2-yloxy-chromen-4-one]		> 1
COc1ccccc1-c1cc(C(=O)Nc2ccccc2SC)no1 [5-(2-methoxyphenyl)-N-(2-methylsulfanylphenyl)-1,2-oxazole-3-carboxamide]		6.26
O=C(c1cc(-c2ccccc2)on1)N1CCN(Cc2ccc3c(c2)OCO3)CC1 [(5-phenylisoxazol-3-yl)-(4-piperonylpiperazino)methanone]		> 30
O=C(Nc1nccs1)c1ccc(S(=O)(=O)NCC2CCCCC2)cc1 [4-(Cyclohexylmethyl-sulfamoyl)-N-thiazol-2-yl-benzamide]		8.02
CCOC(=O)c1sc2nc(NC(=O)C(C)(C)C)sc2c1C [2-[(2,2-dimethyl-1-oxopropyl)amino]-6-methyl-5-thieno[2,3-d]thiazolecarboxylic acid ethyl ester]	12	
COc1ccc(-n2nnnc2S(=O)(=O)CC(=O)N2CCCCC2)cc1 [2-[1-(4-methoxyphenyl)tetrazol-5-yl]sulfonyl-1-piperidin-1-ylethanone]		5.25
COc1ccc(C(c2c(O)ccc3ccccc23)N2CCOCC2)c(OC)c1 (centres undefined) [1-[(2,4-dimethoxyphenyl)-(4-morpholinyl)methyl]-2-naphthalenol]		4.94
Brc1ccc2ncnc(Nc3ccc(N4CCOCC4)cc3)c2c1 [(6-bromoquinazolin-4-yl)-(4-morpholinophenyl)amine]		7.6
CCNc1nc2c(c(=O)n(C)c(=O)n2C)n1Cc1ccc(Cl)cc1 [7-(4-chlorobenzyl)-8-(ethylamino)-1,3-dimethyl-xanthine]	12.9	
O=C(Nc1ccc(Oc2ccccc2)cc1)c1cnc2n(c1=O)CCS2 [5-keto-N-(4-phenoxyphenyl)-2,3-dihydrothiazolo[3,2-a]pyrimidine-6-carboxamide]	16.6	

Compound	EC50 [1] [µM]	EC50 [µM]
Cc1ccc(-c2nc(COC(=O)c3c(C)noc3C)cs2)cc1 [3,5-dimethyl-4-isoxazolecarboxylic acid [2-(4-methylphenyl)-4-thiazolyl]methyl ester]	26.2	
Cc1ccc2nc(C(F)(F)F)c(C#N)c(N)c2c1 [4-amino-6-methyl-2-(trifluoromethyl)-3-quinolinecarbonitrile]		7.58
Fc1ccc2[nH]c3c(N4CCN(c5ccccc5)CC4)ncnc3c2c1		> 3
CCn1c(SCC(=O)Nc2nc3ccc(C)cc3s2)nc2c(c1=O)SC(C)C2 (centres undefined) [2-[(3-ethyl-4-keto-6-methyl-6,7-dihydrothieno[3,2-d]pyrimidin-2-yl)thio]-N-(6-methyl-1,3-benzothiazol-2-yl)acetamide]		5.59
COc1ccc(-c2noc(-c3ccccc3F)n2)cc1 [5-(2-fluorophenyl)-3-(4-methoxyphenyl)-1,2,4-oxadiazole]		7.38
CC1CC(C)(C)Nc2ccc(OC(=O)c3ccco3)cc21 (centres undefined) [(2,2,4-trimethyl-3,4-dihydro-1H-quinolin-6-yl) furan-2-carboxylate]	13.6	
CN1CCN(C(=O)CSc2nc(-c3cccs3)cc(-c3cccs3)c2C#N)CC1 [2-[2-(4-methylpiperazin-1-yl)-2-oxidanylidene-ethyl]sulfanyl-4,6-dithiophen-2-yl-pyridine-3-carbonitrile]	10.1	
CNc1oc(-c2ccc(OCc3ccccc3)cc2)nc1C#N [2-(4-benzoxyphenyl)-5-(methylamino)oxazole-4-carbonitrile]		3.21
Cc1occc1C(=O)N1CCN(c2ccc(Cl)c(Cl)c2)CC1 [1-(3,4-dichlorophenyl)-4-(2-methyl-3-furoyl)piperazine]		4.47
c1ccc(-c2ccc(-c3nc(-c4ccncc4)no3)cc2)cc1 [5-(4-phenylphenyl)-3-(4-pyridyl)-1,2,4-oxadiazole]	10.4	
N#Cc1nc(COc2ccc(Cl)cc2Cl)oc1N1CCN(c2ccccc2)CC1 [2-[(2,4-dichlorophenoxy)methyl]-5-(4-phenyl-1-piperazinyl)-4-oxazolecarbonitrile]	13.9	
OC(c1cccc(OCc2ccccc2)c1)c1nnc(-c2ccccc2)o1 (centres undefined) [(3-benzoxyphenyl)-(5-phenyl-1,3,4-oxadiazol-2-yl)methanol]		2.08
O=C(CSc1nnc(Cc2csc(Nc3cccc(Cl)c3)n2)o1)N1CCc2ccccc21 [2-[[5-[[2-(3-chloroanilino)-1,3-thiazol-4-yl]methyl]-1,3,4-oxadiazol-2-yl]sulfanyl]-1-(2,3-dihydroindol-1-yl)ethanone]		> 95
CCCc1cc(C(=O)N2CCN(C(c3ccccc3)c3ccccc3)CC2)no1 [(4-benzhydrylpiperazin-1-yl)-(5-propyl-1,2-oxazol-3-yl)methanone]		8.01
Nc1ccc(N2CCCCCC2)cc1 [4-(1-azepanyl)aniline;hydrochloride]		> 10
O=C(CSc1nnc(-c2cc3ccccc3cc2O)n1Cc1ccco1)c1ccc(F)cc1 [(3Z)-3-[3-[2-(4-fluorophenyl)-2-oxidanylidene-ethyl]sulfanyl-4-(furan-2-ylmethyl)-1H-1,2,4-triazol-5-ylidene]naphthalen-2-one]		19.8
COc1ccc(-c2nc(-c3ccc(Br)o3)no2)cc1OC [3-(5-bromanylfuran-2-yl)-5-(3,4-dimethoxyphenyl)-1,2,4-oxadiazole]		7.98
CC(C)Cn1c(=O)c(C(=O)Nc2ccccc2S(N)(=O)=O)c(O)c2ccccc21 [1-(2-methylpropyl)-2-oxidanyl-4-oxidanylidene-N-(2-sulfamoylphenyl)quinoline-3-carboxamide]	13.4	
CCOc1ccc(C2CC(c3cccc(OC)c3OC)n3nnnc3N2)cc1Cl (centres undefined) [5-(3-chloranyl-4-ethoxy-phenyl)-7-(2,3-dimethoxyphenyl)-1,5,6,7-tetrahydro-[1,2,3,4]tetrazolo[1,5-a]pyrimidine]		> 95
COC(=O)c1ccc(OCC(O)Cn2nnc3ccccc32)cc1 (centres undefined) [4-[3-(1-benzotriazolyl)-2-hydroxypropoxy]benzoic acid methyl ester]		> 95
COc1ccccc1-c1nc(-c2cccc(C)c2)no1 [5-(2-methoxyphenyl)-3-(3-methylphenyl)-1,2,4-oxadiazole]		1.34
